Data on eight molecules can be found in patent publication US20250066292A1 (The Regents of the University of California, priority 2021, published 2025).

A short description of data set [1]: Prodrug stability and conversion in the medium and within the cell. Format: in vitro ADME. From the text:
This prodrug analog, BL0940, is very stable both in the medium and within the cell.

Data set [2] relates to CDAHFD induced mouse models of NASH. Put plainly: Murine CDAHFD NASH Study 2 comparing prodrug analogs BL0940 and BL0948. The class given is in vivo, mouse (C57BL/6 male). To be noted: lower dose of BL0940, once daily gavage. From the text: Mice had at least received 8 weeks of CDAHDF diet before starting the study and continued to receive this diet during the next phase of the study. There were 8 mice per group (C57BL/6 male).
• HD BL0940 (High dose) once daily by gavage therapy for 4 • LD BL0940 (low dose) once daily by gavage therapy for 4 • BL0948 once daily by gavage therapy for 4 weeks
The MW of BL0940 is higher than BL0948 and so a higher dose was given. That is, HD BL0940 and BL0948 had capability of releasing same number of D2-cysteamine molecules.

In data set [3] the test system is cystinotic fibroblasts. Put plainly: Intracellular D2-cysteamine and prodrug levels following continual drug exposure. The conditions noted are these: for intracellular D2-cysteamine levels: 100 uM in media, continual exposure. Format: cell-based, human. As to the method:
(§1) Cystine Depletion Study. Dermal cystinotic fibroblasts were cultured in medium containing BL0948, BL0940 or D4-Cystamine at the same 100 uM concentration:
Intracellular D2-cysteamine levels are measured following continual drug exposure (in media) to cystinotic fibroblasts (FIG. 7).

Data set [4] concerns Dermal cystinotic fibroblasts. The data set is described as follows: Cystine Depletion Study with BL0948, BL0940 or D4-Cystamine. The class given is cell-based, human. To be noted: 100 uM in medium, continual exposure. As to the method: as §1
Intracellular cystine depletion over time. […] This likely represents a rapid exposure to D2-cysteamine after intracellular uptake. D4-cystamine will most likely reduce after crossing the cell membrane (peak level seen at 45 mins). BL0948 most likely has reduced to D2-cysteamine and the rearranged isomer in the medium before crossing the cell membrane. It is possible that after extracellular reduction that the ratio of D2-Cysteamine to rearranged analog is 10-20:1.

Data set [5] concerns cystinotic fibroblasts. Put plainly: Glutathione and oxidized glutathione measurement during constant exposure. To be noted: 100 uM; for oxidized glutathione (GSSG) / ratio of GSH/GSSG: versus 0-minute controls. The class given is cell-based, human. As to the method: (§2) In vitro experiments with prodrugs in cystinotic fibroblasts. Fibroblasts from a de-identified cystinotic patient were split 3× from 2 plates into 12 plates. An experimental compound, BL-0856, was studied using the following protocols. Several timepoints of cystamine was also performed for comparison. The constant incubation time series for the new compound was: 0, 15 min, 30 min, 1 h, 3 h, and 5 h. The cystamine timepoints were 0, 30 min, 1 h, and 5 h. There was also a washout experiment done for 2 timepoints of the experimental compound, where after 3 hours of constant incubation, the media was exchanged with no compound, and incubated for either 1 h or 3 h. Harvesting of cells on the plate went as follows 2× washes with PBS that included 5 mM N-ethylmaleimide for trapping free thiol groups, and then scraping the plates with an acidified organic solvent extraction solution containing d4-NEM-cysteamine, d4-cystine, d8-cystamine, ^13C^15N NEM-glutathione, and ^13C, ^15N GSSG as internal standards. All samples were run on an API 4500 triple quadrupole LC-MS/MS, with selective reaction monitoring (SRM/MRM) for the following compounds of interest: cystine, cysteine, cystamine, reduced glutathione, oxidized glutathione (GSSG). […] All data fit well to single exponential curves (either decay or association), except where mentioned.
Glutathione and oxidized glutathione measurement during constant cystamine or BL-0856 exposure: Fibroblast cultures are exposed to 100 uM cystamine or 100 uM BL-0856 for the following timepoints: 0 min, […], 30 min, 1 h, 3 h, and 5 h. Following incubation, cells are washed 2× in PBS containing N-ethylmaleimide. After removing the wash, the cells are harvested on ice using 80% acetonitrile/1% formic acid, containing stable isotope internal standard for glutathione and oxidized glutathione.

Data set [6] has as its system cystinotic fibroblasts. The data set is described as follows: Cystine measurement after washout. Format: cell-based, human. To be noted: 100 uM for 3 h, then washout in regular media 0 min, 1 h. As to the method: as §2, with “mentioned. […]” for “mentioned.”
For data set [7], the system named is cystinotic fibroblasts. The data set is described as follows: Cysteine measurement during constant exposure. The class given is cell-based, human. To be noted: 100 uM, compared with cystamine. As to the method: as §2, with “mentioned. […]” for “mentioned.”
The test system of data set [8] is cystinotic fibroblasts. Put plainly: Cysteamine and cystamine (and prodrug) measurement during constant exposure. To be noted: 100 uM; for Cysteamine levels (intracellular) / cystamine levels (intracellular): constant exposure 0 min to 5 h. The class given is cell-based, human. As to the method: as §2
Following incubation, cells are washed 2× in PBS containing N-ethylmaleimide.

A short description of data set [9]: Stability of BL-0856 resuspended in water (LC-MS). The class given is physicochemical. To be noted: 25 mM in water, 1-week post-resuspension. As to the method: Drug concentrations: BL-0856 powder was resuspended in water at a concentration of 25 mM. 40 μL of this solution was added to 10 mL of media for a final concentration of 100 uM. […] Based upon the LC-MS profile, BL-0856 was likely >80-90% pure (unhydrolyzed) when used in the experiments. A method for the reduced intermediate form was also made, but none of it was found present in the neat standard.

The test system of data set [10] is cystinotic fibroblasts. The data set is described as follows: Cystine measurement during constant cystamine or BL-0856 exposure. The class given is cell-based, human. The conditions noted are these: 100 uM, constant exposure 0 min to 5 h, compared with cystamine. As to the method:
Drug concentrations: BL-0856 powder was resuspended in water at a concentration of 25 mM. 40 μL of this solution was added to 10 mL of media for a final concentration of 100 uM.
Cystamine was made from high pH oxidation of cysteamine-bitartrate powder (w/Ammonium hydroxide), at a concentration of 25 mM. […] Since this was used for only several timepoints of a control, this was deemed sufficient for this purpose. The drug was also administered to cells at a final concentration of 100 uM.
In vitro experiments with prodrugs in cystinotic fibroblasts. Fibroblasts from a de-identified cystinotic patient were split 3× from 2 plates into 12 plates. An experimental compound, BL-0856, was studied using the following protocols. Several timepoints of cystamine was also performed for comparison. The constant incubation time series for the new compound was: 0, 15 min, 30 min, 1 h, 3 h, and 5 h. The cystamine timepoints were 0, 30 min, 1 h, and 5 h. There was also a washout experiment done for 2 timepoints of the experimental compound, where after 3 hours of constant incubation, the media was exchanged with no compound, and incubated for either 1 h or 3 h. […]

In data set [11] the test system is CDAHFD induced mouse models of NASH. The data set is described as follows: Study 1 NASH/Mouse (CDAHFD diet). Format: in vivo, mouse (C57BL/6 male). To be noted: 200 mg/kg once daily gavage for 2 weeks; for intrahepatic fibrosis: compared with control group. As to the method:
Study 1—NASH/Mouse. Mice had at least received 8 weeks of CDAHFD diet before starting the study and continued to receive this diet during the next phase of the study. There were 4 mice per group (C57BL/6 male): • Control group (c1), water administered once daily by gavage for 2 weeks; • 200 mg/kg of Drug 0 once daily gavage therapy for 2 weeks; • 200 mg/kg of Drug 2 once daily gavage therapy for 2 weeks; • 200 mg/kg of Drug 4 once daily gavage therapy for 2 weeks. FIG. 10A depicts the study outline.

Data set [12] concerns circulating white blood cells. To be noted: taken regularly, measured in circulating white blood cells; cited from earlier work.
The conditions of data set [13]: 400-1000 IU/day for 4-10 months, cited from earlier work.

Take `[2H]C([2H])(CN)SSC[C@H](NC(C)=O)C(=O)OCC` [BL0940]: in data set [1], the “stability in the medium and within the cell” value was “very stable”. In addition, in [2], the “effect on markers of inflammation, remodeling and fibrosis” value is reported as “did not have the same degree of effect”. Further, in the data set with cystinotic fibroblasts [3], the “intracellular D2-cysteamine levels” value is recorded as “increase over time”. Also, the “intracellular levels of BL0940” value in the data set on cystinotic fibroblasts [3] (continued exposure, e.g. at 240 minute time points) is “increase over time”. In addition, the “intracellular cystine depletion (effect on cystine levels)” value in [4] is “less of an effect compared to D4-cystamine”.
Consider `[2H]C([2H])(CN)SC(C)=O` [BL0948], for which, in [1] (portion rearranges to the N-acetylated isomer), the “conversion of prodrug to D2-cysteamine” value is reported as “does not convert entirely to D2-cysteamine”. In addition, the “intracellular D2-cysteamine levels” value with cystinotic fibroblasts [3] was “relatively high level”. The “intracellular cystine depletion (effect on cystine levels)” value in data set [4] is “rapid and more profound”; in data set [4] (listed as BL-948), “pronounced effect”.
On to `Cl.Cl.Cl.NCCSSC[C@H](N)C(=O)SCCN` [BL-0856, (S)-3-((2-ammonioethyl)disulfaneyl)-1-((2-ammonioethyl)thio)-1-oxopropan-2-aminium chloride], for which, in the data set on cystinotic fibroblasts [5] (between the 2 drug forms), the glutathione result is recorded as “no obvious differences”. In addition, in the data set on cystinotic fibroblasts [5], the “oxidized glutathione (GSSG)” value is “goes up at the first timepoint” and the “ratio of GSH/GSSG” value is “lower throughout all timepoints”. In addition, the cystine reaccumulation rate result with cystinotic fibroblasts [6] is recorded as “comparable to cystamine”. The “cysteine (intracellular)” value with cystinotic fibroblasts [7] is listed as “higher”. In addition, the “BL-0856 and the thiol reduced intermediate in cells” value in the data set on cystinotic fibroblasts [8] (any of the timepoints, LC-MS/MS) is recorded as “not found at high enough levels to be identified”. Besides, in the data set with cystinotic fibroblasts [8], the “Cysteamine levels (intracellular)” value is recorded as “nearly identical” and the “cystamine levels (intracellular)” value is “some cystamine still exists”. Also, the “content of resuspended drug (stability in water)” value in data set [9] is “contained cysteamine and cystamine”. Also, the cystine depletion rates result in the data set with cystinotic fibroblasts [10] is on record as “nearly identical”.
Regarding `[2H]C(CN)SSC([2H])CN` (stereo not shown) [D2-cystamine], the intrahepatic fibrosis result in data set [11] is “significant reduction”. Moreover, in data set [11] (versus control groups), the “markers of fibrosis (aSMA)” value is recorded as “significant reduction”, the “markers of inflammation (F4/80)” value is reported as “significant reduction” and the “markers of inflammation (FIG. 12A-B)” value is recorded as “significant reduction”.
Consider `[2H]C([2H])(CN)SSC([2H])([2H])CN` [D4-cystamine], for which the intrahepatic fibrosis entry in data set [11] was “significant reduction”.
Consider `NCCSSCCN` [cystamine, reference compound], for which, in the data set on cystinotic fibroblasts [5], the “oxidized glutathione (GSSG)” value is “goes up at the first timepoint” and the “ratio of GSH/GSSG” value was “lower throughout all timepoints”. In addition, in the data set on cystinotic fibroblasts [8], the “Cysteamine levels (intracellular)” value was “nearly identical” and the “cystamine levels (intracellular)” value is recorded as “higher”.
As for `NCCS` [cysteamine], the “depletion of intracellular cystine” value in [12] was “up to 90%”.
In the case of vitamin E, the “mean AST levels after treatment” value in data set [13] (decreased from 104±61 IU/L) was 33±11 IU/L. The “mean ALT levels after treatment” value in data set [13] (decreased from 175±106 IU/L) is on record as 40±26 IU/L.
